pIC50: −log10 of the molar value.
Molecular target: HT-29 cell line (Homo sapiens)
Assay: In vitro antiproliferative activity of compound against HT-29 (human colon caner ) cell line was determined by SRB assay

Compound | pIC50
O=Cc1cccc(C(=O)Sc2ccc(Cl)c(Cl)c2)n1 [6-Formyl-pyridine-2-carbothioic acid S-(3,4-dichloro-phenyl) ester] | 4.48
N#Cc1ccc(C=O)nc1SCc1c(Cl)cccc1Cl [2-(2,6-Dichloro-benzylsulfanyl)-6-formyl-nicotinonitrile] | 3.95
